The values that follow are results of earlier work, collected in patent US11896569B2, “Compositions comprising amino acids for use in the treatment of mucositides in neoplasia patients undergoing radiation therapy and/or chemotherapy” (priority 2015, dated 2024).

One data set concerns mucositis. To be noted: 16 grams per day.
Data set [1] has as its system patients suffering from head and neck cancer.

Regarding `NC(=O)CC[C@H](N)C(=O)O` [glutamine], in the data set on mucositis, the treatment/prevention of mucositis entry is reported as “significant results in the treatment/prevention of mucositis were not observed”. Besides, the “efficacy for the treatment of mucositis” value in data set [1] (between 10 and 26 grams/day) is given as “ineffective”. In addition, the “severity of mucositis induced by antitumor treatments” value in data set [1] (daily dose of 30 g) was “significantly decreases the severity of mucositis”.
